Source: patent US8952024B2, “Herbicidal pyrimidone derivatives” (E I du Pont de Nemours and Company, priority 2009, dated 2015)
Like-named read-outs stand apart in the source and are kept apart here.

Tests used:
Type in all cases: in vivo
[1] = tested on: downy bromegrass (Bromus tectorum); assay: Test B pre-/postemergence plant response; conditions: for pest or weed control at 31 g/ha: 31 g ai/ha, scale 0 to 100 (0 no effect, 100 complete control); for pest or weed control at 62 g/ha: 62 g ai/ha
How it was run: (§1)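 Each species received compound formulated in non-phytotoxic solvent with surfactant, either at planting into a loam and sand blend or as a foliar spray once plants reached 2 to 18 cm in peat-based medium. Plants stayed in the greenhouse 13 to 15 days before visual evaluation against controls, scored 0 (no effect) to 100 (complete control).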

[2] = tested on: velvetleaf (Abutilon theophrasti); assay: Test B pre-/postemergence plant response
How it was run: as §1

wild oat (Avena fatua) = assay: Test B pre-/postemergence plant response
How it was run: as §1

kochia (Kochia scoparia) = assay: Test B pre-/postemergence plant response; conditions: Postemergence
How it was run: as §1

[3] = tested on: wheat (Triticum aestivum); assay: Test B pre-/postemergence plant response
How it was run: as §1

[4] = tested on: blackgrass (Alopecurus myosuroides); assay: Test B pre-/postemergence plant response; conditions: for pest or weed control at 31 g/ha: 31 g ai/ha, scale 0 to 100 (0 no effect, 100 complete control); for pest or weed control at 62 g/ha: 62 g ai/ha
How it was run: as §1

[5] = tested on: cocklebur (Xanthium strumarium); assay: Test B pre-/postemergence plant response
How it was run: as §1

[6] = tested on: windgrass (Apera spica-venti); assay: Test B postemergence plant response; conditions: Apera spica-venti, post-emergence, 360 h; Postemergence, 125 g ai/ha; visual rating after 13 to 15 days, scale 0 (no effect) to 100 (complete control)
How it was run: (§2)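 Visual ratings from 0 (no effect) to 100 (complete control), made against controls 13–15 days after treatment, kept in a greenhouse. Compounds were applied postemergence to potted plants at the 1- to 4-leaf stage (2–18 cm).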

[7] = tested on: canarygrass (Phalaris minor); assay: Test B postemergence plant response; conditions: Postemergence
How it was run: as §2

[8] = tested on: chickweed (Stellaria media); assay: Test B postemergence plant response; conditions: Postemergence
How it was run: as §2

[9] = Postemergence, 250 g ai/ha, scale 0 to 100
[10] = Preemergence, 125 g ai/ha, 0 to 100 scale

Cc1c(F)cccc1-n1c(-c2ccccc2)ncc(C(=O)C2=C(O)CCCC2=O)c1=O [Compound 47, 3-(3-fluoro-2-methylphenyl)-5-[(2-hydroxy-6-oxo-1-cyclohexen-1-yl)carbonyl]-2-phenyl-4(3H)-pyrimidinone]
pest or weed control at 31 g/ha ([1]; Bromus tectorum, post-emergence, Postemergence, read-out: Plant response rating, Bromegrass, Downy): 35% | pest or weed control at 62 g/ha ([1]; Bromus tectorum, post-emergence, Postemergence, scale 0 (no effect) to 100 (complete control), 13 to 15 days, read-out: Plant response rating, Bromegrass, Downy): 40% | pest or weed control at 125 g/ha ([1]; Bromus tectorum, post-emergence, Postemergence, 125 g ai/ha, visual rating after 13 to 15 days, scale 0 (no effect) to 100 (complete control)): 50% | pest or weed control at 250 g/ha ([1]; Bromus tectorum, pre-emergence, 250 g ai/ha, Preemergence, 0 to 100 scale, read-out: Plant response rating, Bromegrass, Downy): 10% | pest or weed control at 31 g/ha ([1]; Bromus tectorum, pre-emergence, Preemergence, read-out: Plant response rating, Bromegrass, Downy): 0% | pest or weed control at 62 g/ha ([1]; Bromus tectorum, pre-emergence, Preemergence, scale 0 to 100, 0 no effect, 100 complete control, read-out: Plant response rating, Bromegrass, Downy): 5% | Bromegrass, Downy plant response rating [1, 9]: 55 | Bromegrass, Downy plant response rating [1, 10]: 5 | pest or weed control at 62 g/ha ([2]; Abutilon theophrasti, post-emergence, 360 h, Postemergence, 62 g ai/ha, scale 0 (no effect) to 100 (complete control), 13 to 15 days, read-out: Plant response rating, Velvetleaf): 85% | pest or weed control at 125 g/ha ([2]; Abutilon theophrasti, post-emergence, 360 h, Postemergence, 125 g ai/ha, visual rating after 13 to 15 days, scale 0 (no effect) to 100 (complete control)): 98% | pest or weed control at 250 g/ha ([2]; Abutilon theophrasti, pre-emergence, 360 h, 250 g ai/ha, Preemergence, 0 to 100 scale, read-out: Plant response rating, Velvetleaf): 100% | pest or weed control at 31 g/ha ([2]; Abutilon theophrasti, pre-emergence, 360 h, Preemergence, 31 g ai/ha, scale 0 to 100 (0 no effect, 100 complete control), read-out: Plant response rating, Velvetleaf): 80% | Velvetleaf plant response rating [2, 10]: 90 | pest or weed control at 62 g/ha (wild oat (Avena fatua); Avena fatua, post-emergence, Postemergence, 62 g ai/ha, scale 0 (no effect) to 100 (complete control), 13 to 15 days, read-out: Plant response rating, Oat, Wild): 60% | pest or weed control at 125 g/ha (wild oat (Avena fatua); Avena fatua, post-emergence, Postemergence, 125 g ai/ha, visual rating after 13 to 15 days, scale 0 (no effect) to 100 (complete control)): 60% | pest or weed control at 250 g/ha (wild oat (Avena fatua); Avena fatua, pre-emergence, 250 g ai/ha, Preemergence, 0 to 100 scale, read-out: Plant response rating, Oat, Wild): 10% | pest or weed control at 31 g/ha (wild oat (Avena fatua); Avena fatua, pre-emergence, Preemergence, 31 g ai/ha, scale 0 to 100 (0 no effect, 100 complete control), read-out: Plant response rating, Oat, Wild): 0% | Oat, Wild plant response rating (wild oat (Avena fatua); [10]): 0 | pest or weed control at 62 g/ha (kochia (Kochia scoparia); Bassia scoparia, post-emergence, 62 g ai/ha, scale 0 (no effect) to 100 (complete control), 13 to 15 days, read-out: Plant response rating, Kochia): 95% | pest or weed control at 125 g/ha (kochia (Kochia scoparia); Bassia scoparia, post-emergence, 125 g ai/ha, visual rating after 13 to 15 days, scale 0 (no effect) to 100 (complete control)): 98% | Kochia plant response rating (kochia (Kochia scoparia); 250 g ai/ha, scale 0 to 100): 100 | Wheat plant response rating [3, 10]: 0 | plant injury at 62 g/ha ([3]; Triticum aestivum, post-emergence, Postemergence, 62 g ai/ha, scale 0 (no effect) to 100 (complete control), 13 to 15 days, read-out: Plant response rating, Wheat): 0% | plant injury at 125 g/ha ([3]; Triticum aestivum, post-emergence, Postemergence, 125 g ai/ha, visual rating after 13 to 15 days, scale 0 (no effect) to 100 (complete control)): 5% | plant injury at 250 g/ha ([3]; Triticum aestivum, pre-emergence, 250 g ai/ha, Preemergence, 0 to 100 scale, read-out: Plant response rating, Wheat): 0% | plant injury at 31 g/ha ([3]; Triticum aestivum, pre-emergence, Preemergence, 31 g ai/ha, scale 0 to 100 (0 no effect, 100 complete control), read-out: Plant response rating, Wheat): 0% | pest or weed control at 31 g/ha ([4]; Alopecurus myosuroides, post-emergence, 360 h, Postemergence, read-out: Plant response rating, Blackgrass): 5% | pest or weed control at 62 g/ha ([4]; Alopecurus myosuroides, post-emergence, 360 h, Postemergence, scale 0 (no effect) to 100 (complete control), 13 to 15 days, read-out: Plant response rating, Blackgrass): 20% | pest or weed control at 125 g/ha ([4]; Alopecurus myosuroides, post-emergence, 360 h, Postemergence, 125 g ai/ha, visual rating after 13 to 15 days, scale 0 (no effect) to 100 (complete control)): 25% | pest or weed control at 250 g/ha ([4]; Alopecurus myosuroides, pre-emergence, 360 h, 250 g ai/ha, Preemergence, 0 to 100 scale, read-out: Plant response rating, Blackgrass): 5% | pest or weed control at 31 g/ha ([4]; Alopecurus myosuroides, pre-emergence, 360 h, Preemergence, read-out: Plant response rating, Blackgrass): 0% | pest or weed control at 62 g/ha ([4]; Alopecurus myosuroides, pre-emergence, 360 h, Preemergence, scale 0 to 100, 0 no effect, 100 complete control, read-out: Plant response rating, Blackgrass): 5% | Blackgrass plant response rating [4, 9]: 30 | Blackgrass plant response rating [4, 10]: 5 | Cocklebur plant response rating [5, 9]: 100 | pest or weed control at 31 g/ha ([5]; Xanthium strumarium, post-emergence, Postemergence, 31 g ai/ha, scale 0 to 100 (0 no effect, 100 complete control), read-out: Plant response rating, Cocklebur): 95% | pest or weed control at 125 g/ha ([5]; Xanthium strumarium, post-emergence, Postemergence, 125 g ai/ha, visual rating after 13 to 15 days, scale 0 (no effect) to 100 (complete control)): 95% | pest or weed control at 62 g/ha ([5]; Xanthium strumarium, pre-emergence, Preemergence, 62 g ai/ha, scale 0 to 100, 0 no effect, 100 complete control, read-out: Plant response rating, Cocklebur): 0% | pest or weed control at 125 g/ha [6]: 80% | pest or weed control at 31 g/ha ([7]; Phalaris minor, post-emergence, 360 h, 31 g ai/ha, scale 0 to 100 (0 no effect, 100 complete control), read-out: Plant response rating, Canarygrass): 20% | pest or weed control at 62 g/ha ([7]; Phalaris minor, post-emergence, 360 h, 62 g ai/ha, scale 0 (no effect) to 100 (complete control), 13 to 15 days, read-out: Plant response rating, Canarygrass): 30% | pest or weed control at 125 g/ha ([7]; Phalaris minor, post-emergence, 360 h, 125 g ai/ha, visual rating after 13 to 15 days, scale 0 (no effect) to 100 (complete control)): 40% | Canarygrass plant response rating ([7]; 250 g ai/ha, scale 0 to 100): 40 | Chickweed plant response rating ([8]; 250 g ai/ha, scale 0 to 100): 100 | pest or weed control at 31 g/ha ([8]; Stellaria media, post-emergence, 360 h, 31 g ai/ha, scale 0 to 100 (0 no effect, 100 complete control), read-out: Plant response rating, Chickweed): 85% | pest or weed control at 62 g/ha ([8]; Stellaria media, post-emergence, 360 h, 62 g ai/ha, scale 0 (no effect) to 100 (complete control), 13 to 15 days, read-out: Plant response rating, Chickweed): 98% | pest or weed control at 125 g/ha ([8]; Stellaria media, post-emergence, 360 h, 125 g ai/ha, visual rating after 13 to 15 days, scale 0 (no effect) to 100 (complete control)): 100%
